Measured values published in patent US20260258032A1, “TYROSINE KINASE 2 INHIBITORS AND USES THEREOF” (BIOGEN MA INC., priority 2022, published 2026).
Counter-ions that a name gives are not always drawn.

Tests used:
[1] = test system: Tyk2 kinase activity on STAT4; test: pSTAT4 cell assay (MSD, NK92 cells); assay type: cell-based; conditions: compounds 1 hr
How it was run: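 IC50 values come from 4-parameter logistic fits of normalized percent activity. Phospho-STAT was read by MSD (anti-STAT4 antibodies) in NK92 lysates after a 15 min stimulation with 30 ng/mL IL2. The serum-starved cells had been given compound for 1 h (10 points, four-fold, top 10 μM).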

[2] = molecular target: T1, JH2 domain of human Tyk2 (Homo sapiens, UniProt P29597); test: JH2 biochemical assay (TR-FRET probe displacement); assay type: binding
T1 construct: 10×His-tagged TYK2 JH2 domain (amino acid 575-876)
How it was run: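 A probe-displacement TR-FRET readout: compounds, tested in 3-fold, 10-point dilutions starting at […], compete with 2 nM tracer for 2 nM His-tagged JH2 (residues 575-876) detected by 0.1 nM Tb-anti-His over 60 min. IC50 comes from 4-parameter fits of normalized 520/495 nm ratios.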

[3] = TR-FRET probe displacement, JH2 domain of human Tyk2

T1 sequence (P29597 575-876): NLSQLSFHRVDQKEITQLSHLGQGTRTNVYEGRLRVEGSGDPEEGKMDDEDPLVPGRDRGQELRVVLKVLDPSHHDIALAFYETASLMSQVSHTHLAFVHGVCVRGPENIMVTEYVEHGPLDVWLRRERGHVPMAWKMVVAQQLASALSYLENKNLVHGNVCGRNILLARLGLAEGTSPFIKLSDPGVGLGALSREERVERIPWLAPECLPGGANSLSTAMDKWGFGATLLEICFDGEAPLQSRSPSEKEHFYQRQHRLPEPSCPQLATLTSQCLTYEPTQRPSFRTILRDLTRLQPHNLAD

Row | Structure (SMILES) | IC50 ([1]; stimulated 15 minutes) [nM] | IC50 ([2]; JH2 biochemical assay) [nM] | IC50 ([1]; then stimulated 15 minutes) [nM] | IC50 [2, 3] [nM]
1 | CC(=O)Nc1cc2c(cn1)C1(CC1)CN2c1cc(C)cc(-c2cnn(C(F)F)c2)n1 [Example 259, N-(1′-(6-(1-(difluoromethyl)-1H-pyrazol-4-yl)-4-methylpyridin-2-yl)-1′,2′-dihydrospiro[cyclopropane-1,3′-pyrrolo[3,2-c]pyridin]-6′-yl)acetamide trifluoroacetate] | 100 to 1000 | ≤ 10 | – | –
2 | CC(=O)Nc1cc2c(cn1)C1(CC1)CN2c1cc(C)cc(N2CC(C#N)C2)n1 [Example 194, N-(1′-(6-(3-cyanoazetidin-1-yl)-4-methylpyridin-2-yl)-1′,2′-dihydrospiro[cyclopropane-1,3′-pyrrolo[3,2-c]pyridin]-6′-yl)acetamide] | ≥ 1000 | ≤ 10 | – | –
3 | COCc1cc(N2CC3(CC3)c3cnc(NC(C)=O)cc32)nc(C(C)(F)F)n1 [Example 397, N-(1′-(2-(1,1-difluoroethyl)-6-(methoxymethyl)pyrimidin-4-yl)-1′,2′-dihydrospiro[cyclopropane-1,3′-pyrrolo[3,2-c]pyridin]-6′-yl)acetamide] | – | – | 100 to 1000 | ≤ 10
4 | CC(=O)Nc1cc2c(cn1)C1(CC1)CN2c1cc(C)nc(OC2CCC2)n1 [Example 138, N-(1′-(2-cyclobutoxy-6-methylpyrimidin-4-yl)-1′,2′-dihydrospiro[cyclopropane-1,3′-pyrrolo[3,2-c]pyridin]-6′-yl)acetamide] | ≥ 1000 | 10 to 100 | – | –
5 | CC(=O)Nc1cc2c(cn1)C1(CC1)CN2c1cc(-c2cnn(CCN3CCOCC3)c2)nc(C(C)(F)F)n1 [Example 390, N-(1′-(2-(1,1-difluoroethyl)-6-(1-(2-morpholinoethyl)-1H-pyrazol-4-yl)pyrimidin-4-yl)-1′,2′-dihydrospiro[cyclopropane-1,3′-pyrrolo[3,2-c]pyridin]-6′-yl)acetamide trifluoroacetate] | – | – | ≤ 10 | ≤ 10
6 | CC(=O)Nc1cc2c(cn1)C1(CC1)CN2c1cc(C)cc(N2CC3CCNC3C2)n1 (centres unmarked) [Example 210, N-(1′-(6-(hexahydropyrrolo[3,4-b]pyrrol-5(1H)-yl)-4-methylpyridin-2-yl)-1′,2′-dihydrospiro[cyclopropane-1,3′-pyrrolo[3,2-c]pyridin]-6′-yl)acetamide trifluoroacetate] | ≥ 1000 | 100 to 1000 | – | –
7 | CC(=O)Nc1cc2c(cn1)C1(CC1)CN2c1cc(-c2cnn(C3CCC3)c2)nc(C(C)(F)F)n1 [Example 382, N-(1′-(6-(1-cyclobutyl-1H-pyrazol-4-yl)-2-(1,1-difluoroethyl)pyrimidin-4-yl)-1′,2′-dihydrospiro[cyclopropane-1,3′-pyrrolo[3,2-c]pyridin]-6′-yl)acetamide trifluoroacetate] | – | – | ≤ 10 | ≤ 10
8 | CC(=O)Nc1cc2c(cn1)C1(CC1)CN2c1cc(C)cc(N2CCNCC2)n1 [Example 211, N-(1′-(4-methyl-6-(piperazin-1-yl)pyridin-2-yl)-1′,2′-dihydrospiro[cyclopropane-1,3′-pyrrolo[3,2-c]pyridin]-6′-yl)acetamide trifluoroacetate] | ≥ 1000 | ≤ 10 | – | –
9 | CC(=O)Nc1cc2c(cn1)C1(CC1)CN2c1nc(C(C)(F)F)cs1 [Example 79, N-(1′-(4-(1,1-difluoroethyl)thiazol-2-yl)-1′,2′-dihydrospiro[cyclopropane-1,3′-pyrrolo[3,2-c]pyridin]-6′-yl)acetamide trifluoroacetate] | ≥ 1000 | 10 to 100 | – | –
10 | CC(=O)Nc1cc2c(cn1)C1(CC1)CN2c1cc(C)nc(-c2ccn(C)n2)n1 [Example 244, N-(1′-(6-methyl-2-(1-methyl-1H-pyrazol-3-yl)pyrimidin-4-yl)-1′,2′-dihydrospiro[cyclopropane-1,3′-pyrrolo[3,2-c]pyridin]-6′-yl)acetamide trifluoroacetate] | ≥ 1000 | 10 to 100 | – | –
11 | CC(=O)Nc1cc2c(cn1)C1(CC1)CN2c1cc(C)nc(-c2cnn(C3CC3)c2)n1 [Example 250, N-(1′-(2-(1-cyclopropyl-1H-pyrazol-4-yl)-6-methylpyrimidin-4-yl)-1′,2′-dihydrospiro[cyclopropane-1,3′-pyrrolo[3,2-c]pyridin]-6′-yl)acetamide] | ≥ 1000 | 10 to 100 | – | –
12 | CC(=O)Nc1cc2c(cn1)C1(CC1)CN2c1cc(NC(C)C)nc(C(C)(F)F)n1 [Example 153, N-(1′-(2-(1,1-difluoroethyl)-6-(isopropylamino)pyrimidin-4-yl)-1′,2′-dihydrospiro[cyclopropane-1,3′-pyrrolo[3,2-c]pyridin]-6′-yl)acetamide trifluoroacetate] | 10 to 100 | ≤ 10 | – | –
13 | CC(=O)Nc1cc2c(cn1)C1(CC1)CN2c1cc(C)cc(N2CC(OC(F)F)C2)n1 [Example 198, N-(1′-(6-(3-(difluoromethoxy)azetidin-1-yl)-4-methylpyridin-2-yl)-1′,2′-dihydrospiro[cyclopropane-1,3′-pyrrolo[3,2-c]pyridin]-6′-yl)acetamide] | ≥ 1000 | 100 to 1000 | – | –
14 | CSc1nc(C)cc(N2CC3(CC3)c3cnc(NC(C)=O)cc32)n1 [Example 29, N-(1′-(6-methyl-2-(methylthio)pyrimidin-4-yl)-1′,2′-dihydrospiro[cyclopropane-1,3′-pyrrolo[3,2-c]pyridin]-6′-yl)acetamide] | 100 to 1000 | ≤ 10 | – | –
15 | CCn1ncc(-c2cc(N3CC4(CC4)c4cnc(NC(C)=O)cc43)nc(C(C)(F)F)n2)c1F [Example 301, N-(1′-(2-(1,1-difluoroethyl)-6-(1-ethyl-5-fluoro-1H-pyrazol-4-yl)pyrimidin-4-yl)-1′,2′-dihydrospiro[cyclopropane-1,3′-pyrrolo[3,2-c]pyridin]-6′-yl)acetamide] | 10 to 100 | ≤ 10 | – | –
16 | COC(C)(C)c1nc(C)cc(N2CC3(CC3)c3cnc(NC(C)=O)cc32)n1 [Example 129, N-(1′-(2-(2-methoxypropan-2-yl)-6-methylpyrimidin-4-yl)-1′,2′-dihydrospiro[cyclopropane-1,3′-pyrrolo[3,2-c]pyridin]-6′-yl)acetamide] | 100 to 1000 | 10 to 100 | – | –
17 | CC(=O)Nc1cc2c(cn1)C1(CC1)CN2c1cc(NC2CC2)nc(C(C)(F)F)n1 [Example 284, N-(1′-(6-(cyclopropylamino)-2-(1,1-difluoroethyl)pyrimidin-4-yl)-1′,2′-dihydrospiro[cyclopropane-1,3′-pyrrolo[3,2-c]pyridin]-6′-yl)acetamide trifluoroacetate] | 10 to 100 | ≤ 10 | – | –
18 | CC(=O)Nc1cc2c(cn1)C1(CC1)CN2c1cc(-c2cnn(C3COC3)c2)nc(C(C)(F)F)n1 [Example 388, N-(1′-(2-(1,1-difluoroethyl)-6-(1-(oxetan-3-yl)-1H-pyrazol-4-yl)pyrimidin-4-yl)-1′,2′-dihydrospiro[cyclopropane-1,3′-pyrrolo[3,2-c]pyridin]-6′-yl)acetamide] | – | – | ≤ 10 | ≤ 10
19 | COCCC1(C#N)CN(c2cc(C)cc(N3CC4(CC4)c4cnc(NC(C)=O)cc43)n2)C1 [Example 199, N-(1′-(6-(3-cyano-3-(2-methoxyethyl)azetidin-1-yl)-4-methylpyridin-2-yl)-1′,2′-dihydrospiro[cyclopropane-1,3′-pyrrolo[3,2-c]pyridin]-6′-yl)acetamide] | ≥ 1000 | 10 to 100 | – | –
20 | COCC(C)Nc1cc(N2CC3(CC3)c3cnc(NC(C)=O)cc32)nc(C(C)(F)F)n1 (centres unmarked) [Example 178, N-(1′-(2-(1,1-difluoroethyl)-6-((1-methoxypropan-2-yl)amino)pyrimidin-4-yl)-1′,2′-dihydrospiro[cyclopropane-1,3′-pyrrolo[3,2-c]pyridin]-6′-yl)acetamide trifluoroacetate] | 10 to 100 | ≤ 10 | – | –
21 | COC1(C)CN(c2nc(C)cc(N3CC4(CC4)c4cnc(NC(C)=O)cc43)n2)C1 [Example 234, N-(1′-(2-(3-methoxy-3-methylazetidin-1-yl)-6-methylpyrimidin-4-yl)-1′,2′-dihydrospiro[cyclopropane-1,3′-pyrrolo[3,2-c]pyridin]-6′-yl)acetamide] | 100 to 1000 | 10 to 100 | – | –
22 | CC(=O)Nc1cc2c(cn1)C1(CC1)CN2c1cc(-c2cnn(CCN(C)C)c2)nc(C(C)(F)F)n1 [Example 391, N-(1′-(2-(1,1-difluoroethyl)-6-(1-(2-(dimethylamino)ethyl)-1H-pyrazol-4-yl)pyrimidin-4-yl)-1′,2′-dihydrospiro[cyclopropane-1,3′-pyrrolo[3,2-c]pyridin]-6′-yl)acetamide trifluoroacetate] | – | – | 10 to 100 | ≤ 10
23 | COC1(COc2cc(C)cc(N3CC4(CC4)c4cnc(NC(C)=O)cc43)n2)CCC1 [Example 351, N-(1′-(6-((1-methoxycyclobutyl)methoxy)-4-methylpyridin-2-yl)-1′,2′-dihydrospiro[cyclopropane-1,3′-pyrrolo[3,2-c]pyridin]-6′-yl)acetamide] | ≥ 1000 | 100 to 1000 | – | –
24 | COCCOc1cc(N2CC3(CC3)c3cnc(NC(C)=O)cc32)nc(C(C)(F)F)n1 [Example 4, N-(1′-(2-(1,1-difluoroethyl)-6-(2-methoxyethoxy)pyrimidin-4-yl)-1′,2′-dihydrospiro[cyclopropane-1,3′-pyrrolo[3,2-c]pyridin]-6′-yl)acetamide] | 100 to 1000 | ≤ 10 | – | –
25 | CC(=O)Nc1cc2c(cn1)C1(CC1)CN2c1cc(C)nc(C2CCN(S(C)(=O)=O)CC2)n1 [Example 122, N-(1′-(6-methyl-2-(1-(methylsulfonyl)piperidin-4-yl)pyrimidin-4-yl)-1′,2′-dihydrospiro[cyclopropane-1,3′-pyrrolo[3,2-c]pyridin]-6′-yl)acetamide] | ≥ 1000 | 100 to 1000 | – | –
